Reference: BindingDB's records for patent US12357603 (Bayer Aktiengesellschaft; The Broad Institute, Inc., 2025)

Key:
[1] = biological target: T1, Histone acetyltransferase KAT6B [431-2073] (Homo sapiens (Human), UniProt Q8WYB5); test: Kat6b Activity Assay
T1 construct: 431-2073

[2] = biological target: Histone acetyltransferase KAT6A (UniProt Q92794); test: Kat6a Activity Assay
Protocol: Recombinant human His-tagged Kat6a protein (amino acids 194-810), was purified in-house from Baculovirus-infected insect cells (Sf9). Histone H4 peptide (amino acids 1-24, […]-VLRD-K(Btn)-amide), which was used as substrate, was synthesized by Biosyntan GmbH, Berlin, Germany. Acetyl Coenzyme A was purchased from Sigma-Aldrich (#A-2056).Kat6a was incubated for 60 mins at 22° C. in the presence of different concentrations of test substances (0 μM, and within the range 0.01-20 μM) in assay buffer [25 mM Tris/HCl pH 8, 1 mM EGTA, 2.5 mM Glutathion, 0.02% Chicken Albumin, 0.05% Pluronic F127, 25 mM NaCl, 220 nM H4 peptide and 600 nM Acetyl Coenzym A].The reaction was stopped by addition of Detection Solution (25 mM HEPES pH 7.5, 0.1% BSA, 22 nM SAXL665 (Cisbio #610SAXLE), 100 μM Anacardic Acid (Enzo #ALX-270-381), 1 nM Anti-Histone H4 (ACETYL K8) Antibody (ABCAM #AB15823) and 0.5 nM Anti-Rabbit IgG Eu (Perkin Elmer #AD0083).

Chain of Histone acetyltransferase KAT6A (Q92794 whole entry, the tested form may be a part): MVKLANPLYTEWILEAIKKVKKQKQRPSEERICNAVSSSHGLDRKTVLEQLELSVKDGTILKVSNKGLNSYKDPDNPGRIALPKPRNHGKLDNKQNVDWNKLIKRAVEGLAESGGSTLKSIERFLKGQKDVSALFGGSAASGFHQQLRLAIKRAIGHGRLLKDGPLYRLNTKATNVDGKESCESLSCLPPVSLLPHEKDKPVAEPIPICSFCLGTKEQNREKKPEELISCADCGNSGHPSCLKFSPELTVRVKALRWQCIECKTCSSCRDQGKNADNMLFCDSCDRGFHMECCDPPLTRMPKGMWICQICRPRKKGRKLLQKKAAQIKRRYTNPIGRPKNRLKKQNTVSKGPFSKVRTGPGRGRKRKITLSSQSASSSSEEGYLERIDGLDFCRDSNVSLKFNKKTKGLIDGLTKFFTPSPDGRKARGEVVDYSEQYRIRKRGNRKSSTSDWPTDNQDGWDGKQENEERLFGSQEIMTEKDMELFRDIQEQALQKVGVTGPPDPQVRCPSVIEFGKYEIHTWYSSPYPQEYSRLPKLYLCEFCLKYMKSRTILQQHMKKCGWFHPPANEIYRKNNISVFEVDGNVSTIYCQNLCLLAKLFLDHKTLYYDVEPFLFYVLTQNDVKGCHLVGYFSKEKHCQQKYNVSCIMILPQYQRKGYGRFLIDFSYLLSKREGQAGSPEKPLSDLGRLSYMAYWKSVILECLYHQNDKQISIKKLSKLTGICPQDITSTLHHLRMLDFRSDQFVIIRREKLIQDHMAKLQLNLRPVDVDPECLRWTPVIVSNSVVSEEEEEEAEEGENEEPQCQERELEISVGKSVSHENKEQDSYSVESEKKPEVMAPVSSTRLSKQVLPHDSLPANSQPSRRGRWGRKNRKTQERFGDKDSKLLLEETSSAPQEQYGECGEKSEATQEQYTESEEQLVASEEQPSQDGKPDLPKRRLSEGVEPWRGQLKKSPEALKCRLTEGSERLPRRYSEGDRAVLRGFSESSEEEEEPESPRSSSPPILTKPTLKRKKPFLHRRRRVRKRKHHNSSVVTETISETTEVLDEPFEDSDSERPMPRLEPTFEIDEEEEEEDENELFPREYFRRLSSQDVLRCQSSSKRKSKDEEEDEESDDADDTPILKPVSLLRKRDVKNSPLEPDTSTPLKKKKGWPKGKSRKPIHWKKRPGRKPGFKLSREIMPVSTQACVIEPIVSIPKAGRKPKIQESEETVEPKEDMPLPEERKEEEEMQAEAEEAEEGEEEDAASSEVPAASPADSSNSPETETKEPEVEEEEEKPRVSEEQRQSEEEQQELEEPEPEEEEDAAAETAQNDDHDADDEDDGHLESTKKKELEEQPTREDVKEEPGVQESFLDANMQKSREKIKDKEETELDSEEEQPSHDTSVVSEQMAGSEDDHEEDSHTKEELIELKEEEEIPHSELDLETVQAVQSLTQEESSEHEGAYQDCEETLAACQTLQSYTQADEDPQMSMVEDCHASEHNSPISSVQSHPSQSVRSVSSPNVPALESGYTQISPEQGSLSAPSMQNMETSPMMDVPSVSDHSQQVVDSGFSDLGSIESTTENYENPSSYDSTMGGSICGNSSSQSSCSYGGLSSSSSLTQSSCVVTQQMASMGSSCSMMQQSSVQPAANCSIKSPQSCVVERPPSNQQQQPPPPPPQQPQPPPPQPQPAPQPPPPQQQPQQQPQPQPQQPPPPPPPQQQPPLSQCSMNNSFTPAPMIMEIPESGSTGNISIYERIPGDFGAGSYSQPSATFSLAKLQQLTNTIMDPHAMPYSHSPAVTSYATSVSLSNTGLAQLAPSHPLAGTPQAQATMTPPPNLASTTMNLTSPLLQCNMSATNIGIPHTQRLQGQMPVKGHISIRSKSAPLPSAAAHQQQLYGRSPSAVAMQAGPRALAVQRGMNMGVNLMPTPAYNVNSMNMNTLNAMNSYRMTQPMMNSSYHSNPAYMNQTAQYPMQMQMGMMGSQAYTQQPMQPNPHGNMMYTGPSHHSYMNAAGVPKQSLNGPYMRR
T1 sequence (Q8WYB5 431-2073): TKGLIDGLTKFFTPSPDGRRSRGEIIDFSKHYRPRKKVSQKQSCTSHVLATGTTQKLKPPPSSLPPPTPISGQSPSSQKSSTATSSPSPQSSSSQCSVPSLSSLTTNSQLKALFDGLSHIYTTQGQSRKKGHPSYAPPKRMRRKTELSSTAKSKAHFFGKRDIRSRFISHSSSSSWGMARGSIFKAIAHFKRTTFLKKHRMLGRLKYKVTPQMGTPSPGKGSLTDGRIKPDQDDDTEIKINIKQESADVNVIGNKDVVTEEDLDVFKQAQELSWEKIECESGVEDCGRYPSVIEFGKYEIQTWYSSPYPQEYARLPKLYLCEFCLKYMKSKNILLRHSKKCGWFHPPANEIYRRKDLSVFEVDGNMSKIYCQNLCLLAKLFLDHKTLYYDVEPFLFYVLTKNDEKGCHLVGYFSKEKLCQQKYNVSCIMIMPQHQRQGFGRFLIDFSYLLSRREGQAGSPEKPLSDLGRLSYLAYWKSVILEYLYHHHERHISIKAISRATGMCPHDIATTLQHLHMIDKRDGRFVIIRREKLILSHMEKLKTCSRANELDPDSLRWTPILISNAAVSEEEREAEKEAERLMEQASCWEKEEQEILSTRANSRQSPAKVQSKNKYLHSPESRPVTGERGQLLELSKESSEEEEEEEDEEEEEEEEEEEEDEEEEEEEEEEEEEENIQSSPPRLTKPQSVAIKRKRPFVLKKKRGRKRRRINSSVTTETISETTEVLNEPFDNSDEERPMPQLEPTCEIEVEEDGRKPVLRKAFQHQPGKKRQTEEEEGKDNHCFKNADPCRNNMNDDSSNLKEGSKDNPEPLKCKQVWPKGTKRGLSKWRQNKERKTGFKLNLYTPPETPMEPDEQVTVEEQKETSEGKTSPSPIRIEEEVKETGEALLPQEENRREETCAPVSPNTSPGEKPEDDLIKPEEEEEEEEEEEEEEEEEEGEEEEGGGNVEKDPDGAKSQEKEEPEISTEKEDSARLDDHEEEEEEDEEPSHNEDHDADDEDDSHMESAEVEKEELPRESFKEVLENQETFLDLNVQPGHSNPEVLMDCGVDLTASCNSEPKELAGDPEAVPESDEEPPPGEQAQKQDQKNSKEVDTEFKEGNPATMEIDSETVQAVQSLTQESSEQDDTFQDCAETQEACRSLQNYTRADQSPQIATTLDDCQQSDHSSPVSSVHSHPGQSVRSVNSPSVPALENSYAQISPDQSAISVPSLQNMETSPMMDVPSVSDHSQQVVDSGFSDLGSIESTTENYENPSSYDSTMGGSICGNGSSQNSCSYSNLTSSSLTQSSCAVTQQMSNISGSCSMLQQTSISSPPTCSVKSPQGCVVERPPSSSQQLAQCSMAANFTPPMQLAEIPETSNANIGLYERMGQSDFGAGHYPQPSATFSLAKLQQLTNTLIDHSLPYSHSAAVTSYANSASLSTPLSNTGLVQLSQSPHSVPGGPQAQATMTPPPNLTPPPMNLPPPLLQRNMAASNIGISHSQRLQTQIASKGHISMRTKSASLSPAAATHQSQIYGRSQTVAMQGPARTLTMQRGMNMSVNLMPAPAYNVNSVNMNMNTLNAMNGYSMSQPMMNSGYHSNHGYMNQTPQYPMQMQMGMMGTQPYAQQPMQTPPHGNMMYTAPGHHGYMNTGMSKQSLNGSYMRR

| SMILES | IC50 [1] [nM] | IC50 [2] [nM] |
| --- | --- | --- |
| CN(c1ccccc1)c1ccc2cc(C(=O)NS(=O)(=O)c3ccc(Cl)cc3Cl)oc2c1 [US12357603, Example 09] | 5720 | 2550 |
| CN(c1ccc2cc(C(=O)NS(=O)(=O)c3ccccc3-c3ccccc3)oc2c1)C1CCCC1 [US12357603, Example 46] | 112 | 3650 |
| CCCN(C)c1ccc2cc(C(=O)NS(=O)(=O)c3ccccc3-c3ccccc3)oc2c1 [US12357603, Example 37] | 1060 |  |
| O=C(NS(=O)(=O)c1ccccc1-c1ccccc1)c1cc2ccc(N3CCCC3=O)cc2o1 [US12357603, Example 62] | > 20000 | 13500 |
| CC(C)Oc1ccccc1S(=O)(=O)NC(=O)c1cc2cc(Br)c(N(C)C)cc2o1 [US12357603, Example 208] |  | 7760 |
| COCCN(C)c1ccc2cc(C(=O)NS(=O)(=O)c3ccccc3-c3ccccc3)oc2c1 [US12357603, Example 39] | 534 |  |
| CN(C)c1c(Br)cc2cc(C(=O)NS(=O)(=O)c3ccccc3-c3ccccc3)oc2c1F [US12357603, Example 206] |  | 4700 |
| CN(C)c1ccc2cc(C(=O)NS(=O)(=O)c3ccccc3-c3ccccc3)oc2c1C#N [US12357603, Example 64] |  | 14300 |

Continued by falling IC50 [2], values first:

| IC50 [1] [nM] | IC50 [2] [nM] | SMILES |
| --- | --- | --- |
| 810 | 1390 | CCN(C)c1ccc2cc(C(=O)NS(=O)(=O)c3ccc(Cl)cc3Cl)oc2c1 [US12357603, Example 03] |
|  | 1060 | CCOc1ccc(Br)cc1S(=O)(=O)NC(=O)c1cc2ccc(N(C)CCOC)cc2o1 [US12357603, Example 213] |
|  | 903 | Cc1ccc2cccc(S(=O)(=O)NC(=O)c3cc4cc(C#N)c(N(C)C)cc4o3)c2n1 [US12357603, Example 209] |
|  | 465 | CN(C)c1ccc2cc(C(=O)NS(=O)(=O)c3c(Cl)cccc3Cl)oc2c1 [US12357603, Example 98] |
|  | 187 | CCCc1ccccc1S(=O)(=O)NC(=O)c1cc2ccc(N(C)C)cc2o1 [US12357603, Example 52] |
| 52.2 | 92.8 | CN(C)c1ccc2cc(C(=O)NS(=O)(=O)c3cc(Cl)cc4cccnc34)oc2c1 [US12357603, Example 124] |
| 103 | 57.3 | CN(C)c1ccc2cc(C(=O)NS(=O)(=O)c3ccccc3-c3ccc(CO)cc3)oc2c1 [US12357603, Example 51] |
